# Laboratory results: patent publication US20090117083A1, “IMMUNOMODULATORY ALKALOIDS” (M N L PHARMA LIMITED, priority 2004, published 2009)
# Read-outs that look alike come from different tables or passages of the source.
# Assays:
# [1] = tested on: spleen cells; test: Cytokine modulation in spleen cells (IFN-γ); type: cell-based, BALB/c mice
# Protocol: BALB/c male and female mice bred and maintained at the University of Strathclyde under conventional conditions were used at varying age.
# Cells suspensions were prepared by using the end of a syringe and grinding the spleen through a wire mesh. The cell suspension was then centrifuged at 1000 rpm for 5 minutes. To remove the erythrocytes, the cell pellet was resuspended in Boyle's solution (Tris 0.17M & Ammonium Chloride 0.16M) and centrifuged again for 5 minutes. The pellet was then washed in medium a further two times, then resuspended in 3 mls medium. A cell count was then carried out.
# All spleen cell experiments were carried out in 96-well tissue culture plates. […] Unstimulated wells contained 100 μl of cells and 100 μl of medium. The stimulated wells contained 100 μl of cells plus 50 μl of LPS at 1 μg/ml or 50 μl anti-CD3 at 0.5 μg/ml and 50 μl of medium. The remaining wells contained 100 μl cells, 5 μl of MNLP compound and either 50 μl of anti-CD3 or medium alone.
# The appropriate Mabs and standards were used according to the protocol described for IL-12 (described in Example 1, above).
# [2] = target: T1, α-D-galactosidase (Coffea arabica, UniProt Q42656); test: Glycosidase inhibition: α-D-galactosidase; type: biochemical, Green coffee beans (Coffea sp.)
# T1 construct: purchased Sigma
# T1 sequence (Q42656 16-378): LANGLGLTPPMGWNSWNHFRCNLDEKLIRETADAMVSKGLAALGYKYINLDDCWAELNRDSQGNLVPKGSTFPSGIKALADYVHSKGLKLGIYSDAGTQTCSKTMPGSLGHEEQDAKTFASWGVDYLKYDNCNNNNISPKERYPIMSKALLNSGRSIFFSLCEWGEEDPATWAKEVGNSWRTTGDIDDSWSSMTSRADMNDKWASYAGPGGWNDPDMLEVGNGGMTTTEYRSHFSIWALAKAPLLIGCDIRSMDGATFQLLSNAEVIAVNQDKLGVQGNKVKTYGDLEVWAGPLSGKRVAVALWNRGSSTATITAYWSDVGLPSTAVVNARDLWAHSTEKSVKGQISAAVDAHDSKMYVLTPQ
# Protocol: (§1) All enzymes were purchased from Sigma, as were the appropriate p-nitrophenyl substrates. Assays were carried out in microtitre plates. Enzymes were assayed in 0.1M citric acid/0.2M di-sodium hydrogen phosphate (McIlvaine) buffers at the optimum pH for the enzyme. All assays were carried out at 20° C. For screening assays the incubation assay consisted of 10 μl of enzyme solution, 10 μl of inhibitor solution (made up in water) and 50 μl of the appropriate 5 mM p-nitrophenyl substrate (3.57 mM final conc.) made up in McIlvaine buffer at the optimum pH for the enzyme.
# (§2) The reactions were stopped with 0.4M glycine (pH 10.4) during the exponential phase of the reaction, which was determined at the beginning of the assay using blanks with water, which were incubated for a range of time periods to measure the reaction rate using 5 mM substrate solution. Endpoint absorbances were read at 405 nm with a Biorad microtitre plate reader (Benchmark). Water was substituted for the inhibitors in the blanks.
# [3] = tested on: Naringinase; test: Glycosidase inhibition: Naringinase; type: biochemical, Penecillium decumbens; details: 1 mg/ml
# Protocol: as §1, §2
# [4] = tested on: N-acetyl-β-D-glucosaminidase; test: Glycosidase inhibition: N-acetyl-β-D-glucosaminidase; type: biochemical, Bovine; details: 1 mg/ml
# Protocol: as §1, §2
# [5] = target: T2, α-L-fucosidase (Bos taurus, UniProt Q2KIM0); test: Glycosidase inhibition: α-L-fucosidase; type: biochemical, Bovine
# T2 construct: purchased Sigma
# T2 sequence (Q2KIM0 23-468): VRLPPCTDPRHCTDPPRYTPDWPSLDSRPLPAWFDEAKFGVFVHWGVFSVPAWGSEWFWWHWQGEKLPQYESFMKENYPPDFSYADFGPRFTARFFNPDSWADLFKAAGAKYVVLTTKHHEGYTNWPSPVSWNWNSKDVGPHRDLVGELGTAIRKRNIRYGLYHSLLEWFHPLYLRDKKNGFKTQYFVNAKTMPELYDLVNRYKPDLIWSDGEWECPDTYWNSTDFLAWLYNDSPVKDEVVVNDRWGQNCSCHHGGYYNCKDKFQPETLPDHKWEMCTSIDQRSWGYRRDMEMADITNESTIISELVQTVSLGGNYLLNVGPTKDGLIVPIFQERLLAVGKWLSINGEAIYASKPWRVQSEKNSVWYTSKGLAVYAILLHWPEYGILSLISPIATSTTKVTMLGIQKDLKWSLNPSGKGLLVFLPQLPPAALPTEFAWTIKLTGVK
# Protocol: as §1, §2
# [6] = tested on: B16-F10 tumour cells; test: Control of lung metastasis in mice (B16-F10); type: in vivo, C57/bl6 mice; details: 50 mg/kg s/c on days 2 and 4; lungs on day 14
# Protocol: Mice (C57/bl6 under i/p ketamine anaesthesia) were challenged i/v (tail vein) with 5×10^4 B16-F10 tumour cells in a final volume of 100 μl per mouse on day 0. Test compounds (50 mg/kg in 200 μl sterile non-pyrogenic saline) were administered sic (right flank) on days 2 and 4. On day 14 the mice were sacrifices and the lungs dissected and stained in Indian ink solution (150 ml bidistilled water, 30 ml India Ink, 4 drops NH4OH) for 10 minutes then fixed for at least 24 hr in Fakete's solution (90 ml 37% formaldehyde, 900 ml 70% EtOH and 45 ml glacial acetic acid). The metastases in the stained and fixed lungs could then be visualized, counted and photographed.
# [7] = target: T3, α-D-glucosidase (Oryza sativa subsp. japonica, UniProt Q653V7); test: Glycosidase inhibition: α-D-glucosidase, rice; type: biochemical, rice (Oryza sativa)
# T3 construct: purchased Sigma
# T3 sequence (Q653V7 34-885): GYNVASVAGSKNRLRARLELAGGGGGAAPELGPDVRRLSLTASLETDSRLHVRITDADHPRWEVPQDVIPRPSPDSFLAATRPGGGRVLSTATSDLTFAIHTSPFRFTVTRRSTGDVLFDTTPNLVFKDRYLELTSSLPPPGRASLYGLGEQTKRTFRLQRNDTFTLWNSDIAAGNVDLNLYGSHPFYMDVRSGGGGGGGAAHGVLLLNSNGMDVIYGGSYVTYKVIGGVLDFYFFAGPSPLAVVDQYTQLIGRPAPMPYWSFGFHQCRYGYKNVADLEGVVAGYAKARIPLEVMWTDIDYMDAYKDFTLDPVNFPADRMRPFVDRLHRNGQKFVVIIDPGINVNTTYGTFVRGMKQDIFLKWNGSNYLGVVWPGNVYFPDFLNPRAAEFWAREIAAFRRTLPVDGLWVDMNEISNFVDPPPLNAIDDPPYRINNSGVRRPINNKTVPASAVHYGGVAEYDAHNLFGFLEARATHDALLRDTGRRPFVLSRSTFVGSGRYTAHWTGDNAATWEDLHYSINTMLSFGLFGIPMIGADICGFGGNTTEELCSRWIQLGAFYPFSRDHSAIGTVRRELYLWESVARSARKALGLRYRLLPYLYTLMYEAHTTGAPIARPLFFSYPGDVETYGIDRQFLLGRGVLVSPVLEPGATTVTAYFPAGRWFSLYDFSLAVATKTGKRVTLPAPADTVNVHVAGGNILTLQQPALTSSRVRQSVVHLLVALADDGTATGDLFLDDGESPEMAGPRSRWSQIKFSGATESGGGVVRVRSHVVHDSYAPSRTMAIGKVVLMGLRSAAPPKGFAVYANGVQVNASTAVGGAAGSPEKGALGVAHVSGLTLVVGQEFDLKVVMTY
# Protocol: as §1, §2
# [8] = tested on: α-D-glucosidase; test: Glycosidase inhibition: α-D-glucosidase, Bacillus; type: biochemical, Bacillus stearothermophilus; details: 1 mg/ml
# Protocol: as §1, §2
# [9] = tested on: β-D-glucosidase; test: Glycosidase inhibition: β-D-glucosidase, almond; type: biochemical, Almonds (Prunus sp.); details: 1 mg/ml
# Protocol: as §1, §2
# [10] = target: T4, α-D-mannosidase (Canavalia ensiformis, UniProt C0HJB3); test: Glycosidase inhibition: α-D-mannosidase; type: biochemical, Jack beans (Canavalia ensiformis)
# T4 construct: purchased Sigma
# T4 sequence (C0HJB3 whole entry): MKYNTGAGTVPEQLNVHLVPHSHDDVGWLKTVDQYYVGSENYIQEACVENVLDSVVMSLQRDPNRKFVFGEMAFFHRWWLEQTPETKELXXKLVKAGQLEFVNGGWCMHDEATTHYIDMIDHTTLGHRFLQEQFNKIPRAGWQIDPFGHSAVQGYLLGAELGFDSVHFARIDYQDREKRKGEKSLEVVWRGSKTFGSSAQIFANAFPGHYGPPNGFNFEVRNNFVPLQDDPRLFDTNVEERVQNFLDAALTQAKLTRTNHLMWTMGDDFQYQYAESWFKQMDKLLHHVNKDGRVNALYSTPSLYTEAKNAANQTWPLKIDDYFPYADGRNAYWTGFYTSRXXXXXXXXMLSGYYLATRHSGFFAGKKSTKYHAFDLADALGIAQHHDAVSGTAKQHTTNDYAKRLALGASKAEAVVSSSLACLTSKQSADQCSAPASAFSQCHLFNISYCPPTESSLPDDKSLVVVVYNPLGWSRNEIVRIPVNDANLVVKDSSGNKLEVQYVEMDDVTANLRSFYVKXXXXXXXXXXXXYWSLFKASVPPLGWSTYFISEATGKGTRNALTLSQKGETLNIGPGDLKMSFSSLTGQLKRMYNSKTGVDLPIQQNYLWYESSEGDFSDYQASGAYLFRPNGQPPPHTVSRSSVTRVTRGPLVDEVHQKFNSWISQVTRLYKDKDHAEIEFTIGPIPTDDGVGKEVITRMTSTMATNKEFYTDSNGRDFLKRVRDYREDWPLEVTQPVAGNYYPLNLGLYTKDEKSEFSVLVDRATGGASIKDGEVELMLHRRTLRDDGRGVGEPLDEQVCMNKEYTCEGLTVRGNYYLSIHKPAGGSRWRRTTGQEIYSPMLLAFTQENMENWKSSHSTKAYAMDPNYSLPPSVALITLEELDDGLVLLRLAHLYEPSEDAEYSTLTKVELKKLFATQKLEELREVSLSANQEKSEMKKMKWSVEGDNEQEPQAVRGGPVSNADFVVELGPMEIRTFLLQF
# Protocol: All enzymes were purchased from Sigma, as were the appropriate p-nitrophenyl substrates. Assays were carried out in microtitre plates. Enzymes were assayed in 0.1M citric acid/0.2M di-sodium hydrogen phosphate (McIlvaine) buffers at the optimum pH for the enzyme. All assays were carried out at 20° C.
# Endpoint absorbances were read at 405 nm with a Biorad microtitre plate reader (Benchmark). Water was substituted for the inhibitors in the blanks.
# [11] = target: T5, α-D-glucosidase (Saccharomyces cerevisiae, UniProt P53341); test: Glycosidase inhibition (p-nitrophenyl substrate): α-D-glucosidase, yeast; type: biochemical, Saccharomyces cerevisiae (Baker's yeast); details: 1 mg/ml
# T5 construct: purchased Sigma
# T5 sequence (P53341 whole entry): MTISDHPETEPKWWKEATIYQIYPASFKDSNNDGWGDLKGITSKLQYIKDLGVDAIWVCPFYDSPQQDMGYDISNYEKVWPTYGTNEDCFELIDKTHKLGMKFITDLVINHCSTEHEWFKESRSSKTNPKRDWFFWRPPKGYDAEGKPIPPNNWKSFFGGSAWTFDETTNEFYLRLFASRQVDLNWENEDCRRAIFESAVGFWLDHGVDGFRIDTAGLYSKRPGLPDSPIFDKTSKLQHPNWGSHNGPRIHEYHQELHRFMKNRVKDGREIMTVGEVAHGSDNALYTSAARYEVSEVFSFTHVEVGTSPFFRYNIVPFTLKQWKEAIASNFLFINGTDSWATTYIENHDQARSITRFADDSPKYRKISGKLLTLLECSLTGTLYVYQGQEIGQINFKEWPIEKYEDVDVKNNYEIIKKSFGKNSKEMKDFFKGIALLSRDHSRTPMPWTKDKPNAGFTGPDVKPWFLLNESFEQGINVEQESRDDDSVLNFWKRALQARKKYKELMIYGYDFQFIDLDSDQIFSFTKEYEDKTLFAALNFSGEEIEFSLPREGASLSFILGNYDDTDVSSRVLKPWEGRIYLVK
# Protocol: as §1, §2
# [12] = tested on: β-D-galactosidase; test: Glycosidase inhibition: β-D-galactosidase; type: biochemical, Bovine; details: 1 mg/ml
# Protocol: as §1, §2
# [13] = tested on: HSV-1 (SC16); details: versus infected untreated group
# [14] = read-out: % inhibition, galactosidase
# [15] = 1 mg/ml, read-out: % inhibition, fucosidase
# [16] = 1 mg/ml, read-out: % inhibition, gluc (rice)
# [17] = read-out: % inhibition, mannosidase
# [18] = read-out: % inhibition, gluc (yeast)
# [19] = 1 mg/ml, read-out: % inhibition, α-galactosidase
# [20] = read-out: % inhibition, α-mannosidase
# [21] = read-out: % inhibition, α-fucosidase
# [22] = read-out: % inhibition, α-gluc (yeast)
# [23] = read-out: % inhibition, α-gluc (rice)
# [24] = 1 mg/ml, read-out: % inhibition, α-fucosidase
# [25] = 1 mg/ml, read-out: % inhibition, α-gluc (rice)
Structure (SMILES),"% inhibition, Naringinase [3] [%]","% inhibition, N-acetyl-β-gluc [4] [%]","inhibition at 1000 µg/mL [7, 16] [%]","% inhibition, gluc (Bacillus) [8] [%]","% inhibition, glucosidase [9] [%]","inhibition at 1000 µg/mL [2, 19] [%]","% inhibition, β-galactosidase [12] [%]","inhibition at 1000 µg/mL [10, 20] [%]","inhibition at 1000 µg/mL [11, 22] [%]","% inhibition, α-gluc (Bacillus) [8] [%]","% inhibition, β-glucosidase [9] [%]",other results
"OC[C@H]1NC[C@H](O)[C@@H](O)[C@@H]1O [1-Deoxynojirimycin (DNJ) (21), 1-Deoxynojirimycin]",–,–,–,–,–,–,–,–,–,–,–,IFN-γ secretion/production in splenocytes [1]: inhibited
"OC[C@H]1[C@@H](O)[C@H](O)[C@H]2[C@H](O)[C@@H](O)CN21 [3-epi-casuarine (14), 3-epi-casuarine]",21,−1,13,12,56,–,–,–,–,–,–,"inhibition at 1000 µg/mL [2, 14]: 4%; inhibition at 1000 µg/mL [5, 15]: -2%; Metastatic morphology [6]: Metastasis restricted to apical tip of lung"
"OC[C@@H]1[C@@H](O)[C@H](O)[C@H]2[C@@H](O)[C@@H](O)CN21 [7-epi-casuarine (11), 7-epi-casuarine]",−4,–,73,5,30,–,–,–,–,–,–,"inhibition at 1000 µg/mL [2, 14]: 1%; inhibition at 1000 µg/mL [5, 15]: 25%"
"OC[C@H]1[C@@H](O)[C@H](O)[C@H]2[C@@H](O)[C@H](O)CN21 [Compound 12, 3,6,7-triepi-casuarine]",0,19,0,9,6,–,–,–,–,–,–,"inhibition at 1000 µg/mL [2, 14]: 2%; inhibition at 1000 µg/mL [10, 17]: 8%; inhibition at 1000 µg/mL [5, 15]: -11%; inhibition at 1000 µg/mL [11, 18]: 2%"
"OC[C@H]1[C@@H](O)[C@H](O)[C@@H]2[C@@H](O)[C@H](O)CN21 [Compound 21, 3,6,7,7a-tetraepi-casuarine]",5,27,46,−2,44,–,–,–,–,–,–,"inhibition at 1000 µg/mL [2, 14]: -3%; inhibition at 1000 µg/mL [10, 17]: 1%"
"OC[C@H]1[C@@H](O)[C@H](O)[C@@H]2[C@@H](O)[C@@H](O)CN21 [Compound 22, 3,7,7a-triepi-casuarine]",10,–,0,87,52,–,–,–,–,–,–,"inhibition at 1000 µg/mL [11, 18]: 29%"
"O[C@@H]1[C@@H]2[C@@H](O)[C@H](O)[C@H](O)CN2C[C@H]1O [Compound 35, 2-α-hydroxy-6-epi-castanospermine]",0,20,–,–,–,-5,−1,11,-5,−12,−3,"inhibition at 1000 µg/mL [5, 21]: 0%; inhibition at 1000 µg/mL [7, 23]: 61%"
"OC[C@H]1N[C@H](c2ccc(O)cc2)[C@@H](O)[C@@H]1O [Compound 36, PLB1]",41,30,–,–,–,43,52,42,19,62,52,"inhibition at 1000 µg/mL [5, 24]: 13%; inhibition at 1000 µg/mL [7, 25]: 54%"
"O[C@@H]1[C@@H]2[C@@H](O)[C@H](O)[C@@H](O)CN2C[C@@H]1O [Compound 44, 2-β-hydroxycastanospermine]",6,13,–,–,–,-4,−1,1,8,–,20,–
"OCCN1C[C@@H](O)[C@H](O)[C@H]1CO [Compound 55, N-hydroxyethyl-1,4-dideoxy-1,4-imino-D-arabinitol]",44,6,–,–,–,4,13,5,-3,15,44,"inhibition at 1000 µg/mL [5, 24]: -7%; inhibition at 1000 µg/mL [7, 25]: 71%"
"O[C@@H]1[C@@H]2[C@@H](O)[C@H](O)[C@@H](O)CN2C[C@H]1O [Compound 64, 2-α-hydroxycastanospermine]",76,21,–,–,–,-9,−3,21,-6,−15,−1,"inhibition at 1000 µg/mL [5, 21]: 4%; inhibition at 1000 µg/mL [7, 23]: 12%"
"COc1cc([C@H]2N[C@H](CO)[C@@H](O)[C@@H]2O)ccc1O [Compound 65, PLB2]",4,0,–,–,–,4,18,-16,37,37,25,"inhibition at 1000 µg/mL [5, 24]: -4%; inhibition at 1000 µg/mL [7, 25]: 0%"
"OCC1N[C@H](CO)[C@@H](O)[C@@H]1O (some centres unmarked) [DMDP, 2,6-dihydroxymethyl-3,4-dihydroxypyrrolidine]",0,25,–,–,–,-3,71,25,74,85,81,"inhibition at 1000 µg/mL [5, 24]: -4%; inhibition at 1000 µg/mL [7, 25]: 91%"
"CC(=O)OCC(CCn1cnc2cnc(N)nc21)COC(C)=O [famciclovir, reference compound]",–,–,–,–,–,–,–,–,–,–,–,ear thickness response [13]: almost completely negated
